Test results as given in patent publication EP2308883A1, “New derivatives of thieno[2,3-b]pyridine and 5,6,7,8 tetrahydrothieno[2,3 b]quinoline in particular useful in the treatment of malaria” (priority 2009, dated 2011).
Like-named read-outs stand apart in the source and are kept apart here.

Columns and labels:
Assay in all cases: Species specificity: recombinant tagged GSK-3 orthologue kinase assay
GSK-3 [1] = target: T1, GSK-3 (Plasmodium knowlesi, UniProt A0A679KU36); type: biochemical
T1 sequence (A0A679KU36 1-473): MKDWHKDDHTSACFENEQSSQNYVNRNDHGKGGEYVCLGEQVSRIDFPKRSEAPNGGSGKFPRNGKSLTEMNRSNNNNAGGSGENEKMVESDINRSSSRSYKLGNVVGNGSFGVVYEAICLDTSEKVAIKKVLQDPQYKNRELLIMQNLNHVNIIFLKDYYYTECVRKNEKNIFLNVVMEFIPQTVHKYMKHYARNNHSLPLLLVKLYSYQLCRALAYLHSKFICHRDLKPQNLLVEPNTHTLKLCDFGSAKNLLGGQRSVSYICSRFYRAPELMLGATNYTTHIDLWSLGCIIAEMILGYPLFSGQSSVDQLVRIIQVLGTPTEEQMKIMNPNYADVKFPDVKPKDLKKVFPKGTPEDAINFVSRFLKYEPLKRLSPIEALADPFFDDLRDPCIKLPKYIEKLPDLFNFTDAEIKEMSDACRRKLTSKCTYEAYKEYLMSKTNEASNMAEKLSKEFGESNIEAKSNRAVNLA

GSK-3 [2] = target: T2, GSK-3 (Cryptosporidium parvum, UniProt A3FQN0); type: biochemical
T2 sequence (A3FQN0 1-433): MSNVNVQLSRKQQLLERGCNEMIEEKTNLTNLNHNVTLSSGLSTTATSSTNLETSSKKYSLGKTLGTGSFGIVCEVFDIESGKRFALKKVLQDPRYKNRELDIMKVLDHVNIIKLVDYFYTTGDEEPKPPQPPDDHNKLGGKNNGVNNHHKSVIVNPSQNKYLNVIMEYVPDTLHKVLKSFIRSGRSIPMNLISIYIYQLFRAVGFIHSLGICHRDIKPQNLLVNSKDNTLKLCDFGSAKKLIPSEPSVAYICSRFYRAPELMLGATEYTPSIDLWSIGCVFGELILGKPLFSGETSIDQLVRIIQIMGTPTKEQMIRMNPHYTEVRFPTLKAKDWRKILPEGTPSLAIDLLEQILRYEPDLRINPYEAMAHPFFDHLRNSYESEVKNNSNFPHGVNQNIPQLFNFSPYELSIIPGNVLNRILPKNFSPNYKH

GSK-3 [3] = target: T3, GSK-3 (Leishmania major, UniProt Q4QE15); type: biochemical, Leishmania majo
T3 construct: made in house
T3 sequence (Q4QE15 entry or part of it): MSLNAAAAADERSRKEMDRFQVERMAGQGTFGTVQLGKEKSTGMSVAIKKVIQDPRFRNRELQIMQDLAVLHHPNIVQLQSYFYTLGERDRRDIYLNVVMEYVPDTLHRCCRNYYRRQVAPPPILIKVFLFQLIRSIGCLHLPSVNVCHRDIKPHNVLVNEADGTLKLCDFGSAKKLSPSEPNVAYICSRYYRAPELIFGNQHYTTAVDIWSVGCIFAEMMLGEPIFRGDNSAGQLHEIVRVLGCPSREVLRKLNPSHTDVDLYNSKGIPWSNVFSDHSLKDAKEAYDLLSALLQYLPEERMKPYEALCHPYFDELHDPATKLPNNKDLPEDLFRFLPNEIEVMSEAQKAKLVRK
Excerpt: (§1) Given the strong conservation of GSK-3 across evolution and the surprising selectivity of the compounds according to the present invention towards PfGSK-3 versus mammalian GSK-3, a selection of 12 GSK-3 orthologues of various species chosen on the "tree of life" analyzed. The species belong to the Apicomplexa (P. falciparum, P. vivax, P. knowlesi and P. berghei (Gardner, M.J. et al. Genome sequence of the human malaria parasite Plasmodium falciparum. Nature 419, 498-511 (2002); Carlton, J.M. et al. Comparative genomics of the neglected human malaria parasite Plasmodium vivax. Nature 455, 799-803 (2008); Pain, A. et al. The genome of the simian and human malaria parasite Plasmodium knowlesi. Nature 455, 799-803 (2008).). Toxoplasma gondii (Qin, C.L., Tang, J. and Kim, K. Cloning and in vitro expression of TPK3, a Toxoplasma gondii homologue of shaggy/glycogen synthase kinase-3 kinases. Mol. Biochem. Parasitol. 93, 273-283 (1998)), Cryptosporidium parvum.
(§2) Following PCR amplification from cDNA libraries or direct synthesis based on databases sequences, the GSK-3 genes were inserted in appropriate expression vectors and recombinant, tagged kinases were expressed, affinity purified and assayed in the presence of up to 10-100µM of each compound of formula (I) according to the present invention and a selection of the PfGSK-3 inhibitors.

GSK-3 [4] = target: T4, GSK-3 (Leishmania donovani, UniProt A6N857); type: biochemical
T4 sequence (A6N857 1-355): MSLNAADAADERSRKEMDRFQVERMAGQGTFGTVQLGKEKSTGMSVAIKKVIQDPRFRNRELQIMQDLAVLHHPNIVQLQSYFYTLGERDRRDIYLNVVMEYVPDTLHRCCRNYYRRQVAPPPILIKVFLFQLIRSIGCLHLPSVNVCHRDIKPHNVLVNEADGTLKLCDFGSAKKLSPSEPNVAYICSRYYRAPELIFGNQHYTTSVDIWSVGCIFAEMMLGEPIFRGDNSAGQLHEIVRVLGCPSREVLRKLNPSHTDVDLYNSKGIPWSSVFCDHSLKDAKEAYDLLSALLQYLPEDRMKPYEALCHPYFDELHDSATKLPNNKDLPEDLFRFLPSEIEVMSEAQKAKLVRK

GSK-3 [5] = target: T5, GSK-3 (Dictyostelium discoideum, UniProt P51136); type: biochemical
T5 construct: made in house
T5 sequence (P51136 whole entry): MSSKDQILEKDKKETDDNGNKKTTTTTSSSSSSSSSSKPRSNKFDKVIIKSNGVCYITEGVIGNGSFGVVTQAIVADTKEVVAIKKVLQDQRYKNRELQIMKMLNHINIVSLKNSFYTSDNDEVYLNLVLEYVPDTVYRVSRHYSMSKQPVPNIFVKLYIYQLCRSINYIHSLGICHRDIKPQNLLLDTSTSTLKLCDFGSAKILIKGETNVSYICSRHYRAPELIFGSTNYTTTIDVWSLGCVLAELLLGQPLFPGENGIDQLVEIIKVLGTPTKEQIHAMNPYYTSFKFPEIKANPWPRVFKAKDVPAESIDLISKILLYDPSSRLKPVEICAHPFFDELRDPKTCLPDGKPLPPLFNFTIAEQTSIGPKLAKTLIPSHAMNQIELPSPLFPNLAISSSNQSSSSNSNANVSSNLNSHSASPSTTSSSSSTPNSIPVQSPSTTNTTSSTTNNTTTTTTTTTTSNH
Excerpt: as §1, §2

GSK-3 [6] = target: T6, GSK-3 (Plasmodium falciparum, UniProt O77344); type: biochemical
T6 construct: made in house
T6 sequence (O77344 entry or part of it): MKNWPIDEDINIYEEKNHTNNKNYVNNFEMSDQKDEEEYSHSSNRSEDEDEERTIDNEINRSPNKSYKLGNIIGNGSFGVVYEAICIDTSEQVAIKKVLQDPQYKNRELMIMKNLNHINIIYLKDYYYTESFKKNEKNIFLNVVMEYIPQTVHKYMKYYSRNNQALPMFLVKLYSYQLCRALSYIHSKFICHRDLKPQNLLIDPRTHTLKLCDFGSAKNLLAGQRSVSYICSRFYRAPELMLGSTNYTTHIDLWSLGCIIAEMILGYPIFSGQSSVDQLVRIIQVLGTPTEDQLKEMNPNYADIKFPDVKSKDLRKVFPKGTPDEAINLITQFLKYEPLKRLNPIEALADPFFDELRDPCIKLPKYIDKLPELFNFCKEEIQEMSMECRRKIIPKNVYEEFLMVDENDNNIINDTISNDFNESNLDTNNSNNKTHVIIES
Excerpt: as §1, §2

GSK-3 α = target: T7, GSK-3 α (Homo sapiens, UniProt P49840); type: biochemical; conditions: calculated from dose-response curves; -(100) taken as no inhibition at 100
T7 construct: made in house
T7 sequence (P49840 whole entry): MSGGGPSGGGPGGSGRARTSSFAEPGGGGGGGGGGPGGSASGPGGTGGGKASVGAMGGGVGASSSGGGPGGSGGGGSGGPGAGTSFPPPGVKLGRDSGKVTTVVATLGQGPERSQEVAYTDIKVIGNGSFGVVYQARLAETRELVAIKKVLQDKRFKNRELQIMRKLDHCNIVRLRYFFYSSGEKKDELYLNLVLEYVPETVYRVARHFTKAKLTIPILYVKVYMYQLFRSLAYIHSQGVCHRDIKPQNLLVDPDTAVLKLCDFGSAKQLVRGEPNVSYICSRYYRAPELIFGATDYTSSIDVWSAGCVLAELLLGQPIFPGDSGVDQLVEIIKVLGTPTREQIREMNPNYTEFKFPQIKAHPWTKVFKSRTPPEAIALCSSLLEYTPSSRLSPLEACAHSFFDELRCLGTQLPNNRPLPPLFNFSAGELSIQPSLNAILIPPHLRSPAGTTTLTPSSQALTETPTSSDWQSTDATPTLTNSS
Excerpt: as §1, §2

GSK-3 α/β = type: biochemical; conditions: calculated from dose-response curves; -(100) taken as no inhibition at 100; read-out: IC50 Sus scrofa (GSK-3 α/β)
Excerpt: as §1, §2

GSK- 3 β = target: T8, GSK- 3 β (Homo sapiens, UniProt P49841); type: biochemical; conditions: calculated from dose-response curves; -(100) taken as no inhibition at 100
T8 construct: made in house
T8 sequence (P49841 whole entry): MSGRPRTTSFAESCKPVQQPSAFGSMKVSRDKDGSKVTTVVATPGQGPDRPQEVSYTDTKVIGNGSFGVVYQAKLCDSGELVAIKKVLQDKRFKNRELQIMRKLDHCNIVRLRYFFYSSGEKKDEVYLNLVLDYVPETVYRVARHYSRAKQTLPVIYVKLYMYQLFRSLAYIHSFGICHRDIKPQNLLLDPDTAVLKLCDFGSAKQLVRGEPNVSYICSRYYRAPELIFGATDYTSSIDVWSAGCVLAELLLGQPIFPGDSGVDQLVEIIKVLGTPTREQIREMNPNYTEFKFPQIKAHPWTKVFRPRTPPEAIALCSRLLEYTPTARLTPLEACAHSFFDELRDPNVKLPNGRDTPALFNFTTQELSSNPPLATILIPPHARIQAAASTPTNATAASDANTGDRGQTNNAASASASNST
Excerpt: as §1, §2

[7] = read-out: IC50 Plasmodium knowlesi; calculated from dose-response curves
[8] = read-out: IC50 Leishmania donovani; calculated from dose-response curves
[9] = calculated from dose-response curves; read-out: IC50 Plasmodium knowlesi
[10] = calculated from dose-response curves, -(100) taken as no inhibition at 100, read-out: IC50 Cryptosporidium parvum
[11] = calculated from dose-response curves; read-out: IC50 Leishmania donovani

SMILES | IC50 (GSK-3 [1]; [7]) | IC50 (GSK-3 [2]) | IC50 (GSK-3 [3]) | IC50 (GSK-3 [4]; [8]) | IC50 (GSK-3 [5]) | IC50 (GSK-3 [6]) | IC50 (GSK-3 α) | IC50 (GSK-3 α/β) | IC50 (GSK- 3 β) | IC50 (GSK-3 [1]; [9]) | IC50 (GSK-3 [2]; [10]) | IC50 (GSK-3 [4]; [11]) | IC50 (GSK-3 [6]; read-out: IC50 Plasmodium falciparum, calculated from dose-response curves)
COc1ccccc1-c1c(C#N)c(N)nc2sc(C(=O)c3ccccc3)c(N)c12 [Compound 2, 3,6-diamino-2-benzoyl-4-(2-methoxyphenyl)thieno[2,3-b]pyridine-5-carbonitrile] | 95 µM | > 100 µM | > 100 µM | 80 µM | > 100 µM | 7.8 µM | > 100 µM | > 100 µM | – | – | – | – | –
N#Cc1c(N)nc2sc(C(=O)c3cccc(Cl)c3)c(N)c2c1-c1ccccc1Cl [Compound 22, 3,6-diamino-2-(3-chlorobenzoyl)-4-(2-chlorophenyl)thieno[2,3-b]pyridine-5-carbonitrile] | 2.45 µM | > 100 µM | > 100 µM | 72 µM | > 10 µM | 0.41 µM | > 100 µM | > 10 µM | 3.3 µM | – | – | – | –
N#Cc1cccc(C(=O)c2sc3nc(N)c(C#N)c(-c4ccccc4Cl)c3c2N)c1 [Compound 26, 3,6-diamino-4-(2-chlorophenyl)-2-(3-cyanobenzoyl)thieno[2,3-b]pyridine-5-carbonitrile] | – | – | > 100 µM | – | > 100 µM | 0.21 µM | > 25 µM | 22 µM | 8.1 µM | 6.5 µM | > 100 µM | 100 µM | –
N#Cc1c(N)nc2sc(C(=O)c3cccc(Cl)c3)c(N)c2c1-c1ccccc1I [Compound 14, 3,6-diamino-2-(3-chlorobenzoyl)-4-(2-iodophenyl)thieno[2,3-b]pyridine-5-carbonitrile] | – | – | > 100 µM | – | > 100 µM | – | > 100 µM | > 100 µM | 50 µM | 2.75 µM | > 100 µM | 70 µM | 101 µM
N#Cc1c(N)nc2sc(C(=O)c3cccc(Cl)c3)c(N)c2c1-c1ccccc1Br [Compound 20, 3,6-diamino-4-(2-bromophenyl)-2-(3-chlorobenzoyl)thieno[2,3-b]pyridine-5-carbonitrile] | – | – | > 100 µM | – | 80 µM | 0.47 µM | > 100 µM | 5.6 µM | 4 µM | 1.45 µM | > 100 µM | 44 µM | –
